Reference: patent US8394816B2, “Methods of using [3.2.0] heterocyclic compounds and analogs thereof in treating Waldenstrom's Macroglobulinemia” (priority 2007, dated 2013)

What was measured:
BCWM.1 cells [1] = assay: [3H]-thymidine uptake proliferation assay; format: cell-based; details: BCWM1; BCWM.1, 48 hours; read-out: IC50, inhibition of proliferation ([3H]-thymidine uptake)
Description: (§1) FIG. 1A is a graph showing thymidine uptake assay and cytotoxicity assessed by MTT. BCWM.1 cells were cultured with salinosporamide A (2.5-40 nM) for 48 hours.
WM and IgM-secreting cell lines were cultured for 48 hours in the presence of salinosporamide A (Formula I-16) (2.5-40 nM).

WM-WSU, MEC-1, Namalwa [2] = assay: [3H]-thymidine uptake assay, IgM-secreting cell lines; format: cell-based; details: Homo sapiens, MEC1, 48 hours, read-out: IC50, [3H]-thymidine uptake, all cell lines tested
Description: FIG. 1B is a graph showing thymidine uptake assay.
WM and IgM-secreting cell lines were cultured for 48 hours in the presence of salinosporamide A (Formula I-16) (2.5-40 nM). […]

BCWM.1 cells [3] = assay: cells
Description: as §1
FIG. 2A is a graph showing BCWM.1 cells cultured with salinosporamide A (2.5, 5 and 10 nM) for 48 hours, in the presence or absence of bortezomib (5 and 10 nM). Cytotoxicity was assessed by MTT assay.
All experiments were repeated in triplicate.

WM-WSU, MEC-1, Namalwa [4] = assay: MTT cytotoxicity assay, other IgM-secreting cell lines; format: cell-based; details: Homo sapiens, MEC1; 48 hours
[5] = test system: primary CD19+ cells isolated from three patients with WM; assay: tissue or blood; details: Homo sapiens, read-out: IC50, cytotoxicity in primary CD19+ cells (MTT)
Description: FIG. 1D is a graph showing freshly isolated bone marrow CD19^+ tumor cells from 3 patients with WM were cultured with salinosporamide A (2.5-40 nM [E]; 2.5-80 nM [F]). Cytotoxicity was assessed by MTT assay.

BCWM.1 cells [6] = assay: Apo2.7 staining apoptosis, flow cytometry; format: cell-based; details: 48 hours, untreated 5%
Description: FIG. 1E is a graph showing BCWM. 1 cultured with salinosporamide A for 48 hours at doses that range from 2 to 30 nM and the percentage of cells undergoing apoptosis was studied by Apo2.7 staining.
The molecular mechanisms whereby salinosporamide A induces cytotoxicity in WM cells was examined.

BCWM.1 cells [7] = format: cell-based; details: for caspases-3, 8 and 9 cleavage: each agent 10 nM
From the text: To further dissect whether apoptosis is mediated through the intrinsic or extrinsic pathways, the effect of salinosporamide A, bortezomib and the combination on caspases-3, 8 and 9 was investigated.

NF-κBp65 = NF-κBp65 DNA binding activity (Active Motif assay), TNF-α stimulated; format: cell-based; details: each agent 10 nM, 4 hours; TNF-α 10 ng/mL last 20 minutes
Description: FIG. 3A is a graph showing BCWM.1 cells cultured with either salinosporamide A (10 nM), bortezomib (10 nM), or the combination for 4 hours, then human TNF-α (10 ng/mL) was added for the last 20 minutes. NF-κBp65 transcription factor-binding to its consensus sequence on the plate-bound oligonucleotide was studied from nuclear extract. Wild type and mutant are wild type and mutated consensus competitor oligonucleotides, respectively. All results represent means (±sd) of triplicate experiments.
The effect of salinosporamide A either alone or in combination with bortezomib on the NF-κBp65 DNA binding activity was investigated, studying nuclear extracts from treated cells using the Active Motif assay. […] Phospho-p65 translocation from the cytoplasmic compartment to the nucleus was inhibited by the combination of bortezomib and salinosporamide A, resulting in a significant increase in p-p65 expression in the cytoplasmic compartment as shown by immunofluorescence (FIG. 3D).

Akt = assay: In vitro Akt kinase assay; format: cell-based; details: each agent 10 nM
From the text: FIG. 4B is a picture showing In vitro Akt kinase assay. […] Whole cell lysates were immunoprecipitated with anti-Akt antibody. Then the immunoprecipitate was washed and subjected to in vitro kinase assay according to manufacturer's protocol. Western blotting used anti-p-GSK3α/β and anti-Akt antibodies.

[8] = test system: caspase-like (C-L) activity of the 20S proteasome; assay: 20S proteasome caspase-like activity in treated cells; format: cell-based; details: each agent 10 nM, 4 hours
[9] = test system: BCWM.1 cells adherent to BMSCs; assay: [3H]-TdR uptake in co-culture with BMSCs; format: cell-based; details: salinosporamide A 2.5-20 nM, bortezomib 10 nM, 48 hours
Description: Whether salinosporamide A, alone or in combination with bortezomib, inhibits WM cells growth in the context of the BM milieu was investigated. BCWM.1 cells were cultured with salinosporamide A (2.5-20 nM) and/or bortezomib (10 nM) in the presence or absence of BMSCs, for 48 hours.

BCWM.1 cells [10] = assay: IL-6-induced proliferation, thymidine uptake; format: cell-based; details: salinosporamide A 2.5-20 nM, bortezomib 10 nM, IL-6 25 ng/mL
Description: Proliferation was assessed by thymidine uptake assay.
(§2) The effect of the two proteasome inhibitors on cytotoxicity of WM cells in the presence of IL-6 was also investigated. […] Whether the two proteasome inhibitors, used as single agent or in combination, could also target non-malignant hematopoietic cells was investigated.

[11] = test system: Akt and STAT-3 phosphorylation; assay: IL-6-triggered Akt and STAT-3 phosphorylation, western blotting; format: cell-based; details: each agent 10 nM, 8 hours; IL-6 25 ng/mL 10 minutes
Description: Cells were then stimulated with IL-6 (25 ng/mL) for 10 minutes.
as §2

[12] = test system: BM hematopoietic progenitor cells; assay: Colony-forming cell assay; details: salinosporamide A 10 nM, 20 nM; bortezomib 10 nM; day 14
From the text: FIG. 5D is a graph showing colony-forming cell assay. […] All experiments have been done in triplicate.
as §2

BCWM.1 cells [13] = assay: Transwell migration assay towards SDF-1; format: cell-based; details: each agent 10 nM, 4 hours; SDF-1 30 nM
From the text: Cells were then subjected to migration as previously described in Alsayed Y, Ngo H, Runnels J., et al. Mechanisms of regulation of CXCR4/SDF-1 (CXCL12)-dependent migration and homing in multiple myeloma. Blood.

[14] = test system: BCWM.1 cells homing to the bone marrow; format: in vivo, BALB/c mice; details: single agents, cells pretreated; data not shown
Description: FIG. 6D is a graph showing in vivo flow cytometry. DiI-labeled treated cells and DiR-labeled untreated cells were injected in the tail vein of 2 BALB/c mice. Cells were counted every 5 min for 45 minutes as described in Material and Methods.
DI-labeled BCWM.1 cells treated with salinosporamide A (10 nM, 4 hours), alone or in combination with bortezomib (5 nM), or DiR-labeled untreated BCWM.1 cells used as control were injected in the tail vein of BALB/c mice, followed by in vivo flow cytometry every 5 minutes for 45 minutes after injection.

[15] = test system: PBMCs from 3 healthy volunteers
[16] = test system: Akt knockdown BCWM.1 cell line; assay: MTT cytotoxicity in Akt knockdown cell line; details: 2.5-20 nM, 48 hours
Description: BCWM.1 transfected cells or BCWM.1 control cells were treated with salinosporamide A (2.5-20 nM) for 48 hours. Cytotoxicity was assessed by MTT assay.

[17] = test system: PI3K/Akt signaling pathway in BCWM.1 cells; assay: Western blotting of PI3K/Akt signaling pathway; details: 2.5-20 nM, 6 hours
From the text: Whole cell lysate were subjected to Western blotting using anti-p-Akt, -Akt, -p-GSK3α/β, -p-S6R, -p-ERK, and -α-tubulin antibodies.

[18] = test system: trypsin-like (T-L) activity of the 20S proteasome; assay: 20S proteasome trypsin-like activity in treated cells; details: 10 nM, 4 hours
[19] = test system: chymotrypsin-like (CT-L) activity of the 20S proteasome; assay: 20S proteasome chymotrypsin-like activity in treated cells; details: 10 nM, 4 hours
[20] = test system: p65 phosphorylation and p50NF-κB expression; assay: Fibronectin-induced NF-κB activity, western blotting of nuclear extracts; details: each agent 10 nM, 4 hours
From the text: Nuclear extracts were subjected to western blotting using anti-p-p65, -p50, and -nucleolin antibodies.

Stability in solution = format: physicochemical; details: converted to compound VI-1B, mixture 7:3
Description: The compound of Formula I-16 (15 mg, 0.048 mmol) was dissolved in 1:1 ratio of ACN/DMSO (8 ml) in a scintillation vial (20 ml) to which triethylamine (40 μl, 0.29 mmol), Glutathione (44.2 mg, 0.144 mmol) and a magnetic stir bar were added. The reaction mixture was stirred at room temperature for about 3 hours. The solvent was evaporated from the reaction mixture to yield the compound of Formula I-48, which was purified by reversed phase HPLC using Ace 5u C18 column (150 mm×22 mm ID) with a solvent gradient of 10% to 70% H2O/Acetonitrile over 15 min, 70 to 100% Acetonitrile over 5 min, holding at 100% Acetonitrile for 4 min, at a flow rate of 14.5 ml/min. Diode array detector was used to monitor the purification process. Compound I-48 (10 mg) eluted as a pure compound at 8.255 min. Compound I-48: UV (Acetonitrile/H2O) λmax 235 (sh) nm; ESMS m/z 621.0 (M+H)^+. […] Compound VI-1B: UV (Acetonitrile/H2O) λmax 235 (sh) nm; ESMS, m/z 585.2 (M+H)^+.

WM = details: single agent, phase I trials; cited from earlier work

SMILES: C[C@@]12OC(=O)[C@]1([C@@H](O)[C@@H]1C=CCCC1)NC(=O)[C@@H]2CCCl [salinosporamide A]
- IC50 (BCWM.1 cells [1]): 15 nM
- IC50 (WM-WSU, MEC-1, Namalwa [2]): 20 to 30 nM
- IC50 (BCWM.1 cells [3]; BCWM1, 48 h, read-out: IC50, decreased survival (MTT)): 18 nM
- cytotoxicity, % of BCWM.1 cells (MTT) (BCWM.1 cells [3]; human): 12.4%
- IC50 (WM-WSU, MEC-1, Namalwa [4]): 30 to 40 nM
- IC50 [5]: 20 to 30 nM
- percentage of apoptotic BCWM.1 cells (BCWM.1 cells [6]; 5 nM): 21.2%
- percentage of apoptotic BCWM.1 cells (BCWM.1 cells [6]; 20 nM): 40%
- Mcl-1 expression (BCWM.1 cells [7]; 2.5-20 nM, 12 hours): induced down-modulation of the anti-apoptotic protein Mcl-1
- XIAP expression (BCWM.1 cells [7]; 2.5-20 nM, 12 hours): down-regulated the expression of XIAP in a dose-dependent manner
- caspase-8 and PARP cleavage (BCWM.1 cells [7]; 2.5-20 nM, 12 hours): induced caspase-8 and PARP cleavage in a dose-dependent manner
- caspase-3 and -9 (BCWM.1 cells [7]; 2.5-20 nM, data not shown): without affecting caspase-3 and -9
- caspases-3, 8 and 9 cleavage (BCWM.1 cells [7]; 12 hours): induced mild capsase-8 cleavage without affecting caspase-3 and 9 cleavage
- TNF-α induced NF-κB recruitment to the nucleus (NF-κBp65 DNA binding) (NF-κBp65): inhibited by salinosporamide A more than bortezomib
- Akt kinase activity (phosphorylation of GSK3α/β fusion protein) (Akt): decreased phosphorylation of GSK3α/β fusion protein
- reduction of the C-L activity [8]: 34.3%
- BMSC-triggered increase in proliferation of BCWM.1 cells [9]: inhibited by salinosporamide A in a dose-dependent manner
- IL-6-induced proliferation of BCWM.1 cells (BCWM.1 cells [10]): inhibited IL-6-induced proliferation of BCWM.1 cells
- IL-6-triggered Akt and STAT-3 phosphorylation [11]: inhibited IL-6-triggered Akt and STAT-3 phosphorylation
- growth of BM hematopoietic progenitor cells (colony formation) [12]: did not affect the growth of BM hematopoietic progenitor cells
- WM cells migration towards SDF-1 (BCWM.1 cells [13]): slightly inhibited
- homing of WM cells to the bone marrow [14]: Neither salinosporamide A nor bortezomib used as single agents significantly inhibited homing
- cytotoxic effect on PBMCs [15]: no cytotoxic effect
- viability of BMSCs (MTT) (BMSCs): not affected
- cytotoxic effect in the absence of Akt [16]: abrogated
- phosphorylation of Akt (ser473), GSK3α/β and ribosomal protein S6 [17]: inhibited phosphorylation of Akt (ser473), and downstream GSK3α/β and ribosomal protein S6 in a dose dependent manner
- phosphorylation of ERK1/2 (thr202/tyr204) [17]: no activity on the phosphorylation of the MAP kinase ERK1/2
- reduction of the T-L activity [18]: 38.7%
- reduction of the CT-L activity [19]: 81%
- FN-induced p65 phosphorylation and p50NF-κB expression [20]: inhibited

SMILES: C[C@]1(O)[C@@H](CCCl)C(=O)N[C@]1(C(=O)SCC(NC(=O)CCC(N)C(=O)O)C(=O)NCC(=O)O)[C@@H](O)[C@@H]1C=CCCC1 (some centres unmarked) [Compound I-48]
- stability in solution (Stability in solution): unstable in solution

SMILES: CC(C)C[C@H](NC(=O)[C@H](Cc1ccccc1)NC(=O)c1cnccn1)B(O)O [bortezomib, Bortezomib, reference compound]
- caspases-3, 8 and 9 cleavage (BCWM.1 cells [7]; 12 hours): induced-9 and -3 cleavage
- Akt kinase activity (phosphorylation of GSK3α/β fusion protein) (Akt): did not modulate Akt phosphorylation
- reduction of the C-L activity [8]: 29%
- IL-6-induced proliferation of BCWM.1 cells (BCWM.1 cells [10]): inhibited IL-6-induced proliferation of BCWM.1 cells
- IL-6-triggered Akt and STAT-3 phosphorylation [11]: inhibited IL-6-triggered Akt and STAT-3 phosphorylation
- homing of WM cells to the bone marrow [14]: Neither salinosporamide A nor bortezomib used as single agents significantly inhibited homing
- responses in WM (WM): 40-80%
- reduction of the T-L activity [18]: 5%
- reduction of the CT-L activity [19]: 69%
- FN-induced p65 phosphorylation and p50NF-κB expression [20]: inhibited
